# In patent publication US20240382487A1, “NOVEL COPI/ARF1-LIPOLYSIS PATHWAY INHIBITOR AND COMPOUND FOR ERADICATING CANCER STEM CELLS AND INDUCING DAMP-MEDIATED ANTI-TUMOR IMMUNE RESPONSE” (FUDAN UNIVERSITY, priority 2020, published 2024):
# Experiments:
# [1] = tested on: colorectal cancer cell line LoVo; test: In vitro cell line screening, LoVo; format: cell-based
# Description: (§1) In different tumor cytotoxicity experiments in vitro (FIG. 2-FIG. 7), including colorectal cancer cell lines HT29 and LoVo cells, liver cancer cell Huh7, lung cancer cells H460 and A549, the arf1 inhibitor could all inhibit tumor cell growth (FIG. 2-FIG. 6), and there was a dose-dependent manner (FIG. 7).
# liver cancer cell Huh7 = test: In vitro cell line screening, Huh7; format: cell-based
# Description: as §1
# lung cancer cells H460 = test: In vitro cell line screening, H460; format: cell-based
# Description: as §1
# lung cancer cells A549 = test: In vitro cell line screening, A549; format: cell-based
# Description: as §1
# [2] = tested on: colorectal cancer cell line HT29; test: In vitro cell line screening, HT29; format: cell-based
# Description: as §1
# Arf1 = biological target: T1, Arf1 (Homo sapiens, UniProt P84077); test: Active Arf1 Pull-Down and Detection Kit (GTP-bound Arf1); format: biochemical; settings: liver cancer Huh-7 cell lysate; FIG. 1
# T1 construct: Active Arf1 was detected by using The Thermo Scientific Pierce Active Arf1 Pull-Down and Detection Kit (Cat #16121) with liver cancer Huh-7 cell lysate; endogenous in cells; host or cells: Huh-7 liver cancer cells (lysate)
# T1 sequence (P84077 whole entry): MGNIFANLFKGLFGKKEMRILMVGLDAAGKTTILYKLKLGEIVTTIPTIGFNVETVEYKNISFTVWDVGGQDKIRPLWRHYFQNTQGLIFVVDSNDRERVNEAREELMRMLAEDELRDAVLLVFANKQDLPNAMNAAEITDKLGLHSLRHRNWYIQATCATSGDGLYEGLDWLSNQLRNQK
# Description: Active Arf1 was detected by using The Thermo Scientific Pierce Active Arf1 Pull-Down and Detection Kit (Cat #16121) with liver cancer Huh-7 cell lysate. It is a complete kit for selective enrichment and detection of GTP-bound Arf1 GTPase through specific protein interaction with the GGA3 protein-binding domain (FIG. 1).
# tumor cells = test: Tumor cytotoxicity experiments in vitro (all lines, general statements); format: cell-based; settings: HT29, LoVo, Huh7, H460, A549; FIG. 2-7
# Description: as §1
# [3] = tested on: Drosophila stem cell tumors; test: Drosophila screen (stem cell / intestinal tumors); format: in vivo
# Description: (§2) We tested 10 reported Arf1 inhibitors (Bill et al., 2011; Boal et al., 2010; Feng et al., 2004; Newton et al., 2006; Ohashi et al., 2012; Sáenz et al., 2009; Sorieul et al., 2011; Viaud et al., 2007), including brefeldin A (BFA), Golgicide A (GCA), LM11, Secin16, Secin H3, Secin B7, Exo1, Exo2, LG8, and LG18, on Drosophila stem cell tumors and normal human bone marrow hematopoietic stem cells (HSCs).
# mice = test: Toxicity in mice, oral gavage; format: in vivo
# [4] = tested on: normal human bone marrow hematopoietic stem cells (HSCs); test: Toxicity on normal hematopoietic stem cells
# Description: as §2
# [5] = tested on: liver tumors in MYC-ON mice; test: MYC-ON liver tumor model; format: in vivo; settings: gavage, 5 per week for 4 weeks, analyzed 10 weeks later
# Description: We used the Tet system to generate transgenic mice conditionally expressing the myc pro-oncogene in hepatocytes, […] myc/lap TTA (lt2-myc) (shachaf et al., 2004). We crossed tre-myc mice with a transgenic line, lap TTA. in which the liver activator protein (LAP) promoter drives the expression of tetracycline trans-activator protein (TTA) in hepatocytes. We confirmed this by discontinuing the feeding of doxycycline (myc-ON) activated myc transgene expression in 3-week-old mice. Subsequently. all transgenic mice overexpressing myc succumbed to liver tumors with a mean latency to tumor onset of 12 weeks, as previously reported (shachaf et al., 2004). In this lap TTA/tet-off myc conditional transgenic mouse model, myc overexpression in adult mice reproducibly induces liver cancer, similar to hepatocellular carcinoma and/or hepatoblastoma. The transgenic tumor invades the entire liver locally and is frequently associated with malignant peritoneal effusions that spread to the thoracic cavity by metastasis and invade the lung parenchyma.
# For the mouse liver tumor model, mating cages and weaning cages were administrated by a grain based rodent diet (Bio-Serv. Cat #14-727-450) containing 200 mg/kg doxycycline, and the mice were induced tumors at 6 weeks of age, by changing to a normal diet. Mice were divided into three groups, control, Du 101 treated and du102 treated. The control group was given 100 by gavage using a feeding tube 100 μl/10 g body weight (BW) 20% DMSO+80% corn oil. Du 101 treated groups were treated with 25 mg/ml Du 101. The stock solution was diluted 1:4 with corn oil to make the working solution. Dul02 treatment groups were treated with 25 mg/ml du102 stock solution diluted 1:4 with corn oil to make working solutions. The mixed working solution was administered to mice by gavage using a feeding tube. Starting from the second week of myc-0n, 5 injections per week ([…]) were given for 4 weeks, mice were monitored every 2 days, and 10 weeks later mice were euthanized and analyzed for tumor growth.
# For the myc-on liver tumor model, antibodies were i.p. Mg/kg) was injected once a week for 5 consecutive weeks, the first Doxycycline was discontinued weekly after injection. Antibodies used to treat mice were as follows: anti-CD4 (clone GK1.5, BioXcell, Cat #BE0003-1), anti-CD8 a (clone 2.43, BioXcell, Cat #BE0061) Or […] rat IgG (bioxcell, cat #be0094) isotype control antibody. From the second week of myc-on initiation lasted for 4 weeks, Du 102 and DMSO were administered by gavage needle as described above, mice were monitored every 2 days, and 10 weeks later mice were euthanized and analyzed for tumor growth.
# For the myc-on liver tumor model, antibodies were i.p. Injection once a week for 5 weeks, and doxycycline was discontinued weekly after the first injection. Antibodies used to treat mice were as follows: 100 ug/mouse Armenian hamster anti mouse PD1 (J43, bioxcell, cat #be0033-2) and 100 ug/mouse Armenian hamster isotype IgG (bioxcell. cat #bp0091) was used as controls. For 4 weeks from the second week of myc-on, Du 102 and DMSO were administered by gavage needle as described above, mice were monitored every 2 days. and 10 weeks later mice were euthanized and analyzed for tumor growth. Coadministration of anti-PD-1 antibodies may allow the use of lower, less toxic doses of du102, thus avoiding known side effects.
Compound,tumor suppressive effect [1],tumor suppressive effect (liver cancer cell Huh7),tumor suppressive effect (lung cancer cells H460),tumor suppressive effect (lung cancer cells A549),tumor suppressive effect [2],inhibition of arf1 activation (Arf1),tumor suppressive / inhibitory effect on tumor cells (tumor cells),"in vivo tumor suppressive effects ([3]; Drosophila screen, FIG. 8)",killing Drosophila stem cell tumors ([3]; in vivo),"toxic effects (mice; oral gavage for 60 consecutive days, FIG. 10)","toxic effects (mice; up to 50 mg/kg by oral gavage for 21 consecutive days, FIG. 9)",toxicity (killing normal HSCs) [4],liver tumor numbers [5]
Cc1ccc(/C=C/Cc2cccc3c2C2=C(CCCC2)C3)cc1C [compound 104],effective tumor suppressive effects,effective tumor suppressive effects,effective tumor suppressive effects,effective tumor suppressive effects,effective tumor suppressive effects,–,–,–,–,–,–,–,–
C(=C\c1ccccc1)/Cc1cccc2c1C1=C(CCCCCC1)C2 [compound 109],effective tumor suppressive effects,effective tumor suppressive effects,effective tumor suppressive effects,effective tumor suppressive effects,effective tumor suppressive effects,–,–,–,–,–,–,–,–
C(=N\Nc1ncnc2sc3c(c12)CCCC3)/c1ccc2[nH]ccc2c1 [Du 101],–,–,–,–,–,potent inhibitors,Some Tumor Suppressive Effect,good in vivo tumor suppressive effects,effective,induced toxic effects,no toxic effects were observed,relatively low toxicity,44.7
C1=Cc2cc(/C=C/Cc3cccc4c3C3=C(CCCC3)C4)ccc2C1 [compound 107],effective tumor suppressive effects,effective tumor suppressive effects,effective tumor suppressive effects,effective tumor suppressive effects,effective tumor suppressive effects,–,–,–,–,–,–,–,–
